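Briefly, cells in 96-well plates were exposed to five compound concentrations for 48 h, and endpoints were estimated by linear interpolation. The concentration for 50% growth inhibition is given as GI50. At the TGI there is no net growth.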
Assays:
Assay in all cases: growth of human tumour cells (NCI), 48 h
786-0 renal = test system: 786-0 renal
A498 renal = test system: A498 renal
A549 NSCLC = test system: A549 NSCLC
ACHN renal = test system: ACHN renal
BT-549 breast = test system: BT-549 breast
CAKI-1 renal = test system: CAKI-1 renal
CCRF-CEM leukemia = test system: CCRF-CEM leukemia
COLO 205 colon = test system: COLO 205 colon
DU-145 prostate = test system: DU-145 prostate
EKVX NSCLC = test system: EKVX NSCLC
HCT-116 colon = test system: HCT-116 colon
HCT-15 colon = test system: HCT-15 colon
HOP-62 NSCLC = test system: HOP-62 NSCLC
HOP-92 NSCLC = test system: HOP-92 NSCLC
HS 578T breast = test system: HS 578T breast
HT29 colon = test system: HT29 colon
IGROV1 ovarian = test system: IGROV1 ovarian
K-562 leukemia = test system: K-562 leukemia
KM12 colon = test system: KM12 colon
LOX IMVI melanoma = test system: LOX IMVI melanoma
M14 melanoma = test system: M14 melanoma
MALME-3M melanoma = test system: MALME-3M melanoma
MCF7 breast = test system: MCF7 breast
MDA-MB-231 breast = test system: MDA-MB-231 breast
MDA-MB-435 = test system: MDA-MB-435
MOLT-4 leukemia = test system: MOLT-4 leukemia
NCI-H226 lung = test system: NCI-H226 lung
NCI-H23 lung = test system: NCI-H23 lung
NCI-H460 lung = test system: NCI-H460 lung
NCI-H522 lung = test system: NCI-H522 lung
NCI/ADR-RES ovarian = test system: NCI/ADR-RES ovarian
OVCAR-4 ovarian = test system: OVCAR-4 ovarian
OVCAR-5 ovarian = test system: OVCAR-5 ovarian
OVCAR-8 ovarian = test system: OVCAR-8 ovarian
PC-3 prostate = test system: PC-3 prostate
RPMI-8226 leukemia = test system: RPMI-8226 leukemia
RXF 393 renal = test system: RXF 393 renal
SF-268 CNS = test system: SF-268 CNS
SF-295 CNS = test system: SF-295 CNS
SF-539 CNS = test system: SF-539 CNS
SK-MEL-2 melanoma = test system: SK-MEL-2 melanoma
SK-MEL-28 melanoma = test system: SK-MEL-28 melanoma
SK-MEL-5 melanoma = test system: SK-MEL-5 melanoma
SK-OV-3 ovarian = test system: SK-OV-3 ovarian
SN12C renal = test system: SN12C renal
SNB-19 CNS = test system: SNB-19 CNS
SNB-75 CNS = test system: SNB-75 CNS
SW-620 colon = test system: SW-620 colon
T-47D breast = test system: T-47D breast
TK-10 renal = test system: TK-10 renal
U251 CNS = test system: U251 CNS
UACC-257 melanoma = test system: UACC-257 melanoma
UACC-62 melanoma = test system: UACC-62 melanoma
UO-31 renal = test system: UO-31 renal

For `COC(=O)CNc1nc(N(C)O)nc(N(C)O)n1`, the GI50 (786-0 renal) was 3.56 µM, the TGI (786-0 renal) was 66.8 µM and the GI50 (A498 renal) was 20.3 µM. The TGI (A498 renal) was > 100 µM, the GI50 (A549 NSCLC) was 3.44 µM and the TGI (A549 NSCLC) was > 100 µM. The GI50 (ACHN renal) was 1.35 µM, the TGI (ACHN renal) was > 100 µM and the GI50 (BT-549 breast) was 13.8 µM. The TGI (BT-549 breast) was > 100 µM, the GI50 (CAKI-1 renal) was 13.1 µM and the TGI (CAKI-1 renal) was > 100 µM. For the same molecule, the GI50 (CCRF-CEM leukemia) was 0.697 µM, the TGI (CCRF-CEM leukemia) was > 100 µM and the GI50 (COLO 205 colon) was 3.99 µM. The TGI (COLO 205 colon) was > 100 µM, the GI50 (DU-145 prostate) was 2.15 µM and the TGI (DU-145 prostate) was 45 µM. The GI50 (EKVX NSCLC) was 3.31 µM, the TGI (EKVX NSCLC) was > 100 µM and the GI50 (HCT-116 colon) was 1.98 µM. For the same molecule, the TGI (HCT-116 colon) was > 100 µM, the GI50 (HCT-15 colon) was 0.551 µM and the TGI (HCT-15 colon) was > 100 µM. The GI50 (HOP-62 NSCLC) was 2.12 µM, the TGI (HOP-62 NSCLC) was > 100 µM and the GI50 (HOP-92 NSCLC) was > 100 µM. For the same molecule, the TGI (HOP-92 NSCLC) was > 100 µM, the GI50 (HS 578T breast) was 8.96 µM and the TGI (HS 578T breast) was > 100 µM. The GI50 (HT29 colon) was 6.5 µM, the TGI (HT29 colon) was > 100 µM and the GI50 (IGROV1 ovarian) was 7.38 µM. The TGI (IGROV1 ovarian) was 39.4 µM, the GI50 (K-562 leukemia) was 2.43 µM and the TGI (K-562 leukemia) was > 100 µM. The GI50 (KM12 colon) was 5.65 µM, the TGI (KM12 colon) was > 100 µM and the GI50 (LOX IMVI melanoma) was 1.71 µM. For the same molecule, the TGI (LOX IMVI melanoma) was > 100 µM, the GI50 (M14 melanoma) was 3.38 µM and the TGI (M14 melanoma) was 32.6 µM. It also gave a GI50 (MALME-3M melanoma) of 19.3 µM, a TGI (MALME-3M melanoma) of 77.4 µM and a GI50 (MCF7 breast) of 3.07 µM. The TGI (MCF7 breast) was > 100 µM, the GI50 (MDA-MB-231 breast) was 4.16 µM and the TGI (MDA-MB-231 breast) was > 100 µM. The GI50 (MDA-MB-435) was 10.5 µM, the TGI (MDA-MB-435) was > 100 µM and the GI50 (MOLT-4 leukemia) was 1.69 µM. The TGI (MOLT-4 leukemia) was > 100 µM, the GI50 (NCI-H226 lung) was 8.31 µM and the TGI (NCI-H226 lung) was > 100 µM. The GI50 (NCI-H23 lung) was 11.5 µM, the TGI (NCI-H23 lung) was > 100 µM and the GI50 (NCI-H460 lung) was 0.557 µM. For the same molecule, the TGI (NCI-H460 lung) was > 100 µM, the GI50 (NCI-H522 lung) was 3.73 µM and the TGI (NCI-H522 lung) was > 100 µM. The GI50 (NCI/ADR-RES ovarian) was 2.86 µM, the TGI (NCI/ADR-RES ovarian) was > 100 µM and the GI50 (OVCAR-4 ovarian) was 2.85 µM. For the same molecule, the TGI (OVCAR-4 ovarian) was > 100 µM, the GI50 (OVCAR-5 ovarian) was 9.24 µM and the TGI (OVCAR-5 ovarian) was > 100 µM. The GI50 (OVCAR-8 ovarian) was 3.31 µM, the TGI (OVCAR-8 ovarian) was > 100 µM and the GI50 (PC-3 prostate) was > 100 µM. For the same molecule, the TGI (PC-3 prostate) was > 100 µM, the GI50 (RPMI-8226 leukemia) was 1.49 µM and the TGI (RPMI-8226 leukemia) was > 100 µM. For the same molecule, the GI50 (RXF 393 renal) was 4.85 µM, the TGI (RXF 393 renal) was > 100 µM and the GI50 (SF-268 CNS) was 1.83 µM. For the same molecule, the TGI (SF-268 CNS) was > 100 µM, the GI50 (SF-295 CNS) was 2.92 µM and the TGI (SF-295 CNS) was > 100 µM. The GI50 (SF-539 CNS) was 3.48 µM, the TGI (SF-539 CNS) was > 100 µM and the GI50 (SK-MEL-2 melanoma) was 3.45 µM. The TGI (SK-MEL-2 melanoma) was 25.7 µM, the GI50 (SK-MEL-28 melanoma) was 4.53 µM and the TGI (SK-MEL-28 melanoma) was > 100 µM. The GI50 (SK-MEL-5 melanoma) was 2.2 µM, the TGI (SK-MEL-5 melanoma) was 15.9 µM and the GI50 (SK-OV-3 ovarian) was 10.3 µM. For the same molecule, the TGI (SK-OV-3 ovarian) was > 100 µM, the GI50 (SN12C renal) was 9.17 µM and the TGI (SN12C renal) was > 100 µM. For the same molecule, the GI50 (SNB-19 CNS) was 27.3 µM, the TGI (SNB-19 CNS) was > 100 µM and the GI50 (SNB-75 CNS) was 4.2 µM. The TGI (SNB-75 CNS) was > 100 µM, the GI50 (SW-620 colon) was 5.07 µM and the TGI (SW-620 colon) was > 100 µM. For the same molecule, the GI50 (T-47D breast) was 17.7 µM, the TGI (T-47D breast) was > 100 µM and the GI50 (TK-10 renal) was 1.61 µM. For the same molecule, the TGI (TK-10 renal) was > 100 µM, the GI50 (U251 CNS) was 2.26 µM and the TGI (U251 CNS) was > 100 µM. The GI50 (UACC-257 melanoma) was 11.6 µM, the TGI (UACC-257 melanoma) was 80.3 µM and the GI50 (UACC-62 melanoma) was 4.3 µM. It also gave a TGI (UACC-62 melanoma) of 29.1 µM, a GI50 (UO-31 renal) of 3.02 µM and a TGI (UO-31 renal) of 50.5 µM.
